The values below come from patent US7053194B2, “Compositions and methods for p53-mediated repression of gene expression” (Fox Chase Cancer Center, priority 1999, dated 2006).

For experiment [1], the system named is MCF7 cells. The experiment in a line: Cyclin-dependent kinase assays. The class given is cell-based, human. The following applies: MCF7 treated with doxorubicin. As for the experimental part: Cyclin-dependent kinase assays were performed essentially as described (Harper et al., 1993), using 250 ug of whole cell extract immunoprecipitated with 0.5 ug of polyclonal antisera to cdk2 (Santa Cruz Biotechnology), cyclin E and cyclin A. Following immunoprecipitation and washing, 1 ug of histone H1 (Sigma) was used as a substrate, in kinase reaction buffer (20 mM Tris pH 7.4/7.5 mM MgCl2/1 mM DTT), supplemented with 5 mM sodium fluoride, 1 mM sodium ortho-vanadate, and 125 ng/uL cAMP-dependent protein kinase inhibitor (Sigma). 0.5 uL of ^32P-ATP (NEN, 800 Ci/mmol) was added to each reaction, and 0.5 ug of normal rabbit IgG (Sigma) was used as a negative control. Following incubation at 37 degrees for 20 minutes, reactions were boiled in Laemmli sample buffer and loaded onto 10% SDS-PAGE. Cells for flow cytometry were fixed in ethanol and stained with propidium iodide as described (Murphy et al., Genes & Devel. 10:2971–2980, 1996) and analyzed on a Becton Dickinson FacScan. G1, S (synthesis) and G2/M populations were calculated using the program CellQuest.
This finding is consistent with flow cytometry data, which indicate that these cells are arrested in G2/M (not shown). As a negative control, normal rabbit IgG is used instead of polyclonal antisera for the immunoprecipitations and kinase assays (lanes 1 and 4).

Experiment [2] relates to H1299 human lung adenocarcinoma. The experiment in a line: Northern analysis of stathmin mRNA in p53-null cells. The experiment is classed as cell-based. The following applies: H1299, null for p53.

Consider `COc1cccc2c1C(=O)c1c(O)c3c(c(O)c1C2=O)C[C@@](O)(C(=O)CO)C[C@@H]3O[C@H]1C[C@H](N)[C@H](O)[C@H](C)O1` [adriamycin, doxorubicin], for which, in experiment [1], the “cdk2, cyclin A and cyclin E kinase activities” value is reported as “all activities are low”; the cell cycle arrest entry is given as “arrest in G2/M phase”. For the same compound, the “effect on stathmin levels” value in experiment [2] is “neither TSA nor adriamycin had any effect on stathmin levels”.
